#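 The compound was tested at five concentrations on cells cultured in 96-well plates, with a 48-hour exposure period. Here, GI50 denotes the concentration required for 50% inhibition of growth. TGI denotes the concentration required for complete inhibition of growth.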
# Legend:
# Assay in all cases: DTP human tumour cell line panel, 48 h
# [1] = tested on: A498 renal
# [2] = tested on: BT-549 breast
# [3] = tested on: HL-60(TB) leukemia
# [4] = tested on: K-562 leukemia
# [5] = tested on: LOX IMVI melanoma
# [6] = tested on: MDA-N
# [7] = tested on: OVCAR-3 ovarian
# [8] = tested on: OVCAR-5 ovarian
# [9] = tested on: OVCAR-8 ovarian
# [10] = tested on: RXF 393 renal
# [11] = tested on: SF-539 CNS
# [12] = tested on: SW-620 colon
# [13] = tested on: UACC-257 melanoma
# [14] = tested on: UACC-62 melanoma
SMILES,TGI [1] [µM],TGI [2] [µM],TGI [3] [µM],TGI [4] [µM],TGI [5] [µM],TGI [6] [µM],TGI [7] [µM],TGI [8] [µM],TGI [9] [µM],TGI [10] [µM],TGI [11] [µM],TGI [12] [µM],TGI [13] [µM],TGI [14] [µM],GI50 [2] [µM],GI50 [3] [µM],GI50 [4] [µM],GI50 [5] [µM],GI50 [9] [µM],GI50 [11] [µM]
CSC1(C)C(=O)Nc2c(OCc3ccccc3)cc([N+](=O)[O-])cc21 (centres undefined),> 100,> 100,> 100,> 100,> 100,> 100,> 100,> 100,55.1,> 100,> 100,> 100,> 100,> 100,–,–,–,–,–,–
O=C1CSC(c2c[nH]c3ccccc23)N1c1ccc(Cl)cc1 (centres undefined),> 100,> 100,> 100,> 100,–,> 100,> 100,> 100,> 100,> 100,> 100,> 100,> 100,> 100,–,–,–,–,–,–
CC1(c2sccc2Cl)CC(c2sccc2Cl)=C(C#N)C(=C(C#N)C#N)N1 (centres undefined),33.3,32.3,> 100,–,37.8,35,29.8,41.7,39,42.4,36.7,39,39.2,32.5,–,–,–,–,–,–
COc1cc(C)c(/C=C2/N=C(c3ccccc3)OC2=O)c([N+](=O)[O-])c1OC,> 100,> 100,> 100,> 100,> 100,> 100,> 100,> 100,> 100,> 100,> 100,> 100,> 100,> 100,–,–,–,–,–,–
COc1cc2c(c(OC)c1OC)C(=O)[C@@H]1[C@H]2N1C(=O)NCCCl,> 100,> 100,> 100,> 100,> 100,> 100,> 100,> 100,> 100,> 100,> 100,> 100,> 100,> 100,–,–,–,–,–,–
COc1ccc(/C(C)=N/NC(=O)c2ccncc2)c(OC)c1,> 10,> 10,> 10,> 10,> 10,> 10,–,–,> 10,–,> 10,> 10,> 10,> 10,–,–,–,–,–,–
CC(=O)c1[nH]c(NC(C)C)c(C(=S)Nc2ccccc2)c1N,82.9,86.4,> 100,> 100,37.8,61.3,> 100,> 100,94.9,50.3,> 100,> 100,65.8,53.8,–,–,–,–,–,–
CN(C)c1ccc(/C=C/c2ccc(S(N)(=O)=O)cc2)cc1,40.3,8.62,> 100,> 100,> 100,> 100,49.8,53.6,27.5,> 100,25.6,92.9,> 100,–,2.14,> 100,> 100,18.7,4.95,11.7
CC(O)C1(CNc2cc(Cl)nc(N)n2)CCCCC1 (centres undefined),> 100,> 100,> 100,> 100,> 100,> 100,> 100,> 100,> 100,> 100,> 100,> 100,> 100,> 100,–,–,–,–,–,–
CCOC(=O)/C=C(\C(=O)OCC)n1ccc(=O)n(Cc2cnnn2CCCCOC(C)=O)c1=O,37.6,30.2,–,10.2,17.6,51.4,21.5,29.4,13.9,2.16,5.44,> 41.1,27.4,23.4,–,–,2.1,–,–,–
COc1cc(CSc2ccc(O)cc2)cc(OC)c1OC,> 100,48.3,> 100,> 100,> 100,> 100,> 100,> 100,> 100,> 100,> 100,> 100,> 100,> 100,–,–,–,–,–,–
CSC1NC(c2ccccc2)=C(C#N)C(=O)N1C1OCC(OC(C)=O)C(OC(C)=O)C1OC(C)=O (centres undefined),> 100,> 100,–,> 100,> 100,> 100,> 100,> 100,> 100,> 100,> 100,> 100,> 100,> 100,–,–,–,–,–,–
CC1(C)[C@@H]2C[C@H]1[C@@H](Cc1cccc(C[C@H]3c4cc(-c5ccccn5)ncc4[C@H]4C[C@@H]3C4(C)C)c1)c1cc(-c3ccccn3)ncc12,> 93.2,> 100,4.33,> 49.1,> 100,> 100,> 100,> 100,> 43.9,> 100,> 100,> 61.4,> 100,> 100,–,–,–,–,–,–
CCOC(=O)NN(C(=O)OCC)C(C(=O)C1=CCCCC1)N(NC(=O)OCC)C(=O)OCC,> 100,> 100,–,> 100,> 100,> 100,> 100,> 100,> 100,> 100,> 100,> 100,> 100,–,–,–,–,–,–,–
COC(=O)C1CCN(C(=O)OC(C)(C)C)CC1,> 100,> 100,> 100,–,> 100,> 100,> 100,> 100,> 100,–,> 100,> 100,> 100,> 100,–,–,–,–,–,–
COC(=O)C1CCC(=S)N1C(=O)OCc1ccccc1 (centres undefined),> 100,> 100,–,> 100,–,> 100,> 100,> 100,> 100,> 100,–,> 100,> 100,> 100,–,–,–,–,–,–
O=C1c2ccccc2C(=O)N1CCSCC(CO)SCCN1C(=O)c2ccccc2C1=O (centres undefined),> 100,> 100,50.5,> 100,> 100,> 100,–,> 100,> 100,> 100,–,> 100,> 100,> 100,–,–,–,–,–,–
COC(=O)C1Cc2ccc(O)c(O)c2CN1 (centres undefined),> 100,32.2,72.6,83.6,28.4,30.8,> 100,70.3,–,> 100,32.5,40.7,29.2,39,–,–,–,–,–,–
COCCN(CCNC(=O)c1cccc2c(N)c3cccc(C)c3nc12)CCOC,14.6,20.3,–,–,3.27,2.75,15.2,15.6,19,5.96,4.64,> 50.2,19.9,10.6,–,–,–,–,–,–
CC(=O)Oc1cc(S(=O)(=O)Nc2n[nH]c(Nc3ccc(C)cc3)n2)c(S)cc1Cl,> 100,> 100,> 100,> 100,> 100,> 100,> 100,> 100,> 100,–,> 100,> 100,> 100,> 100,–,–,–,–,–,–
O=[N+]([O-])C(/C=C(\Cl)[N+](=O)[O-])=C1Nc2ccccc2N1,70.4,> 100,> 100,> 100,> 100,> 100,> 100,–,> 100,95.9,93.3,> 100,> 100,> 100,–,–,–,–,–,–
CCNC(=O)c1cc(Cl)ccc1NC(=O)C12CC3CC(CC(C3)C1)C2,> 100,> 100,> 100,> 100,> 100,70.9,> 100,> 100,> 100,43.9,> 100,> 100,> 100,–,–,–,–,–,–,–
CCOP(=O)(OCC)/C(C#N)=C/c1cccn1C(C)C,> 100,> 100,–,> 100,> 100,> 100,> 100,> 100,> 100,> 100,> 100,> 100,> 100,> 100,–,–,–,–,–,–
COc1cc(C2C3=C(COC3=O)Oc3cc4c(cc32)OCO4)ccc1O (centres undefined),> 25.7,> 100,–,> 100,> 100,0.346,0.471,> 100,29.5,> 100,1.03,> 100,> 100,> 100,–,–,–,–,–,–
COC(=O)N1CC(=O)C(C(=O)NC23CC4CC(CC(C4)C2)C3)C1 (centres undefined),> 100,> 100,> 100,> 100,–,> 100,> 100,> 100,> 100,> 100,> 100,> 100,> 100,> 100,–,–,–,–,–,–
CC1CN=C(NS(=O)(=O)c2cc(C(=O)Nc3ccc(Cl)cc3)c(Cl)cc2S)NN1 (centres undefined),37.1,> 100,> 100,> 100,> 100,> 100,> 100,> 100,59.3,–,81.8,> 100,> 100,84.1,–,–,–,–,–,–
